Test results: US20030204875A1, “Novel agrobacterium-mediated plant transformation method” (priority 1999, published 2003)
Where two headings read alike, the source gives them in different places.

Tested on: Agrobacterium cells
Conditions: for Results (growth of Agrobacterium cells): 15 hours; for OD A660 after 15 hours growth: starting OD 0.2
Procedure: Agrobacterium cultures used for transformation are pre-induced (except as otherwise indicated) by acetosyringone (200 μM) and glucose (2%) in AB based induction medium. The procedure followed was as follows:
Agrobacterium cells were centrifuged at 4° C. for 10 min at 3250 g and the pellet was resuspended in the pre-induction medium to a final optical density of 0.2 at A660 and incubated at 28° C. for 12-15 h.
During pre-induction, AgNO3 was added at two different levels (20 ? M and 40 ? M final concentration) to the pre-induction medium. The final optical density prior to the induction was adjusted to A660 (OD 0.2). Agrobacterium cells were pre-induced for 15 hours. Measurement of the optical density (measure of growth) was taken at the end of pre-induction, just prior to transformation. Agrobacterium cells pre-induced in the absence of AgNO3 were used as a control.

[1] = 20 μM AgNO3 in pre-induction medium
[2] = 40 μM AgNO3 in pre-induction medium

`O=[N+]([O-])[O-].[Ag+]` [AgNO3, silver nitrate] was tested, and the “Results (growth of Agrobacterium cells)” value [1] was “no growth”, the “OD A660 after 15 hours growth” value [1] was 0.23 and the “Results (growth of Agrobacterium cells)” value [2] was “no growth”. The “OD A660 after 15 hours growth” value [2] was 0.24 and the “Effect on Agrobacterium cells, plating on semi-solid LB plates” value (15 hour culture period in the presence of AgNO3 (20 or 40 μM)) was “lethal”.
